From patent US20100086483A1, “METHOD OF MULTIDETECTOR COMPUTED TOMAGRAPHY” (Gilead Palo Alto, Inc., priority 2008, published 2010)

Assays:
conscious dogs [1] = assay: Effects of caffeine alone on MAP and HR in conscious dogs (Part I); type: in vivo, dog
Protocol: Sixteen chronically instrumented male mongrel dogs weighing from 22-30 kg were used in the study. The animal protocol was approved by the Institutional Animal Care and Use Committee of New York Medical College and conforms to the Guide for the Care and Use of Laboratory Animal by the United States National Institutes of Health.
Dogs were sedated with acepromazine (0.3 mg/kg, IM) and anesthetized with pentobarbital sodium (25 mg/kg, IV). After intubation, dogs were artificially ventilated with room air. A thoracotomy was made in the fifth intercostal space using sterile techniques. A Tygon catheter (Cardiovascular Instruments, Wakefield, Mass.) was inserted into the descending thoracic aorta and another one was inserted into the left atrium. In 9 dogs, an ultrasound flow transducer (Transonic Systems, Ithaca, N.Y.) was placed around the left circumflex coronary artery. A solid-state pressure gauge (P6.5, Konisberg Instruments, Pasadena, Calif.) was placed into the left ventricle through the apex. The chest was closed in layers. The catheters and wires were tunneled subcutaneously and externalized through the skin at the back of the dog's neck. Dogs were allowed to recover from the surgery before experiments were performed, and were trained to lie on a table.
Phasic arterial pressure was measured by connecting the aortic catheter to a strain gauge transducer (P23 ID, LDS Test and Measurement, Valley View, Ohio). Left ventricular pressures were measured by the solid pressure gauge. CBF (mL/min) was measured from an ultrasound flow transducer using a Transonic flowmeter (T206, Transonic Systems, Ithaca, N.Y.). Two indices were used to describe the regadenoson-induced coronary vasodilation: 1) the maximum increase in CBF and 2) the duration of the 2-fold increase in CBF (the period of time that CBF was elevated to a level ≧2-fold of baseline CBF). All pressure and flow data were acquired and analyzed using a Ponemah System (Version 3.30 or 4.20, LDS Test and Measurement, Valley View, Ohio). MAP and HR were calculated from phasic blood pressure, and LV dP/dtMax was calculated from the left ventricular systolic pressure.
On the day of an experiment, a dog was placed on a table, where it lay quietly during the experiment. A catheter was inserted into a peripheral vein in the leg and attached to an infusion line to administer drugs without disturbing the dog. The experiment was begun after MAP, HR and CBF were stable.
Three experiments were performed on each dog in the group.
The statistical significance of a difference between the value of a parameter at baseline and at the indicated time point after drug administration was determined using a One-Way Repeated Measures ANOVA followed by Tukey's Test. […] Results with p<0.05 were considered to be significant. A computer-based software package (SigmaStat 2.03) was used for statistical analysis. All data are presented as Mean±SEM.

conscious dogs [2] = assay: Effects of regadenoson on HR and CBF before and after metoprolol in conscious dogs; type: in vivo, dog; conditions: for duration of two-fold increase in CBF: in the presence of metoprolol 1.5 mg/kg
Protocol: Five mongrel dogs were chronically instrumented for measurements of systemic hemodynamics and coronary blood flow (CBF). The effects of regadenoson (1, 2.5 and 5 μg/kg, IV) on HR and CBF were assessed before and after administration of the β1-adrenergic receptor blocker metoprolol (1.5 mg/kg). Values of peak CBF and the duration of the two-fold increase in CBF above baseline were used to assess Reg-induced coronary vasodilation.

[3] = Reg 1 μg/kg IV, before metoprolol
[4] = Reg 2.5 μg/kg IV, before metoprolol
[5] = Reg 5 μg/kg IV, before metoprolol

Q: Which “changes in MAP and HR” value (conscious dogs [1]; caffeine 2 mg/kg IV) does the source give for `Cn1c(=O)c2c(ncn2C)n(C)c1=O` [Caffeine, caffeine] here?
A: no significant changes

Q: And the HR (conscious dogs [1]; caffeine 2 mg/kg IV, 2.5 min)?
A: 95 ± 5 beats/min

Q: And the HR (conscious dogs [1]; caffeine 2 mg/kg IV, 5 min)?
A: 91 ± 5 beats/min

Q: What about the HR (conscious dogs [1]; caffeine 2 mg/kg IV, 15 min) of the same molecule?
A: 85 ± 6 beats/min

Q: And the HR (conscious dogs [1]; caffeine 2 mg/kg IV, 30 min)?
A: 81 ± 7 beats/min

Q: And the HR (conscious dogs [1]; caffeine 2 mg/kg IV, 60 min)?
A: 90 ± 9 beats/min

Q: What about the HR (conscious dogs [1]; caffeine 2 mg/kg IV, 90 min) of the same molecule?
A: 87 ± 5 beats/min

Q: What about the HR (conscious dogs [1]; caffeine 2 mg/kg IV, 120 min) of the same molecule?
A: 88 ± 6 beats/min

Q: And the “change in HR” value (conscious dogs [1]; caffeine 4 mg/kg IV)?
A: without a significant change

Q: What about the HR (conscious dogs [1]; caffeine 4 mg/kg IV, 2.5 min) of the same molecule?
A: 104 ± 5 beats/min

Q: What about the HR (conscious dogs [1]; caffeine 4 mg/kg IV, 5 min) of the same molecule?
A: 102 ± 4 beats/min

Q: What about the HR (conscious dogs [1]; caffeine 4 mg/kg IV, 15 min) of the same molecule?
A: 88 ± 6 beats/min

Q: What about the MAP (conscious dogs [1]; caffeine 4 mg/kg IV, 15 min) of the same molecule?
A: 99 ± 4 mm Hg

Q: What about the HR (conscious dogs [1]; caffeine 4 mg/kg IV, 30 min) of the same molecule?
A: 90 ± 7 beats/min

Q: And the HR (conscious dogs [1]; caffeine 4 mg/kg IV, 60 min)?
A: 85 ± 7 beats/min

Q: And the HR (conscious dogs [1]; caffeine 4 mg/kg IV, 90 min)?
A: 90 ± 7 beats/min

Q: What about the HR (conscious dogs [1]; caffeine 4 mg/kg IV, 120 min) of the same molecule?
A: 86 ± 5 beats/min

Q: What about the “increase in MAP” value (conscious dogs [1]; caffeine 4 mg/kg IV, at both 2.5 and 5 min after injection) of the same molecule?
A: ~12 mm Hg

Q: What about the HR (conscious dogs [1]; caffeine 10 mg/kg IV, 2.5 min) of the same molecule?
A: 100 ± 4 beats/min

Q: And the HR (conscious dogs [1]; caffeine 10 mg/kg IV, 5 min)?
A: 101 ± 4 beats/min

Q: And the HR (conscious dogs [1]; caffeine 10 mg/kg IV, 15 min)?
A: 93 ± 5 beats/min

Q: And the HR (conscious dogs [1]; caffeine 10 mg/kg IV, 30 min)?
A: 87 ± 5 beats/min

Q: And the MAP (conscious dogs [1]; caffeine 10 mg/kg IV, 30 min)?
A: 101 ± 3 mm Hg

Q: What about the HR (conscious dogs [1]; caffeine 10 mg/kg IV, 60 min) of the same molecule?
A: 83 ± 2 beats/min

Q: And the HR (conscious dogs [1]; caffeine 10 mg/kg IV, 90 min)?
A: 80 ± 5 beats/min

Q: What about the HR (conscious dogs [1]; caffeine 10 mg/kg IV, 120 min) of the same molecule?
A: 80 ± 4 beats/min

Q: And the MAP (conscious dogs [1]; caffeine 10 mg/kg IV, 120 min)?
A: 102 ± 2 mm Hg

Q: How did the “increase in HR (ΔHR)” value (conscious dogs [2]; Reg 1 μg/kg IV, after metoprolol 1.5 mg/kg IV) turn out when `CNC(=O)c1cnn(-c2nc(N)c3ncn([C@@H]4O[C@H](CO)[C@@H](O)[C@H]4O)c3n2)c1` [Regadenoson, (1-{9-[(4S,2R,3R,5R)-3,4-dihydroxy-5-(hydroxymethyl)oxolan-2-yl]-6-aminopurin-2-yl}pyrazol-4-yl)-N-methylcarboxamide] was run?
A: 19±4 bpm

Q: What about the “duration of 2-fold increase in CBF” value (conscious dogs [2]; [3]) of the same molecule?
A: 93 ± 22 s

Q: What about the “increase in HR (ΔHR)” value (conscious dogs [2]; [3]) of the same molecule?
A: 49±8 bpm

Q: And the “increase in peak CBF (ΔCBF)” value (conscious dogs [2]; [3])?
A: 129 ± 10 mL/min

Q: What about the “duration of two-fold increase in CBF” value (conscious dogs [2]; Reg 1 μg/kg IV) of the same molecule?
A: 71 ± 34 s

Q: And the “increase in peak CBF (ΔCBF)” value (conscious dogs [2]; Reg 1 μg/kg IV, in the presence of metoprolol 1.5 mg/kg (NS))?
A: 112 ± 5 mL/min

Q: And the “increase in HR (ΔHR)” value (conscious dogs [2]; Reg 2.5 μg/kg IV, after metoprolol 1.5 mg/kg IV)?
A: 28±3 bpm

Q: And the “duration of 2-fold increase in CBF” value (conscious dogs [2]; [4])?
A: 316 ± 57 s

Q: What about the “increase in HR (ΔHR)” value (conscious dogs [2]; [4]) of the same molecule?
A: 63±5 bpm

Q: And the “increase in peak CBF (ΔCBF)” value (conscious dogs [2]; [4])?
A: 149 ± 7 mL/min

Q: And the “duration of two-fold increase in CBF” value (conscious dogs [2]; Reg 2.5 μg/kg IV)?
A: 215 ± 45 s

Q: What about the “increase in peak CBF (ΔCBF)” value (conscious dogs [2]; Reg 2.5 μg/kg IV, in the presence of metoprolol 1.5 mg/kg (NS)) of the same molecule?
A: 136 ± 16 mL/min

Q: What about the “increase in HR (ΔHR)” value (conscious dogs [2]; Reg 5 μg/kg IV, after metoprolol 1.5 mg/kg IV) of the same molecule?
A: 39±5 bpm

Q: And the “duration of 2-fold increase in CBF” value (conscious dogs [2]; [5])?
A: 593 ± 86 s

Q: And the “increase in HR (ΔHR)” value (conscious dogs [2]; [5])?
A: 71±7 bpm

Q: And the “increase in peak CBF (ΔCBF)” value (conscious dogs [2]; [5])?
A: 174 ± 10 mL/min

Q: And the “duration of two-fold increase in CBF” value (conscious dogs [2]; Reg 5 μg/kg IV)?
A: 364 ± 86 s

Q: And the “increase in peak CBF (ΔCBF)” value (conscious dogs [2]; Reg 5 μg/kg IV, in the presence of metoprolol 1.5 mg/kg (p<0.05))?
A: 138 ± 9 mL/min
